Assay results published in ChEMBL document CHEMBL5465560, “Selectivity Literature for EUbOPEN Chemogenomic Library” (2024).

Legend:
[1] = target: Insulin receptor-related protein (Homo sapiens) (UniProt P14616); assay: Selectivity interaction (KinomeScan (DiscoverX)) EUB0000092b INSRR; conditions: at 10 µM
[2] = target: Serine/threonine-protein kinase OSR1 (Homo sapiens) (UniProt O95747); assay: Selectivity interaction (KinomeScan (DiscoverX)) EUB0000092b OXSR1; conditions: at 10 µM
[3] = target: Non-receptor tyrosine-protein kinase TYK2 (Homo sapiens, UniProt P29597); assay: Selectivity interaction (ProQinase) EUB0000171b TYK2
Sequence of Non-receptor tyrosine-protein kinase TYK2 (P29597 whole entry): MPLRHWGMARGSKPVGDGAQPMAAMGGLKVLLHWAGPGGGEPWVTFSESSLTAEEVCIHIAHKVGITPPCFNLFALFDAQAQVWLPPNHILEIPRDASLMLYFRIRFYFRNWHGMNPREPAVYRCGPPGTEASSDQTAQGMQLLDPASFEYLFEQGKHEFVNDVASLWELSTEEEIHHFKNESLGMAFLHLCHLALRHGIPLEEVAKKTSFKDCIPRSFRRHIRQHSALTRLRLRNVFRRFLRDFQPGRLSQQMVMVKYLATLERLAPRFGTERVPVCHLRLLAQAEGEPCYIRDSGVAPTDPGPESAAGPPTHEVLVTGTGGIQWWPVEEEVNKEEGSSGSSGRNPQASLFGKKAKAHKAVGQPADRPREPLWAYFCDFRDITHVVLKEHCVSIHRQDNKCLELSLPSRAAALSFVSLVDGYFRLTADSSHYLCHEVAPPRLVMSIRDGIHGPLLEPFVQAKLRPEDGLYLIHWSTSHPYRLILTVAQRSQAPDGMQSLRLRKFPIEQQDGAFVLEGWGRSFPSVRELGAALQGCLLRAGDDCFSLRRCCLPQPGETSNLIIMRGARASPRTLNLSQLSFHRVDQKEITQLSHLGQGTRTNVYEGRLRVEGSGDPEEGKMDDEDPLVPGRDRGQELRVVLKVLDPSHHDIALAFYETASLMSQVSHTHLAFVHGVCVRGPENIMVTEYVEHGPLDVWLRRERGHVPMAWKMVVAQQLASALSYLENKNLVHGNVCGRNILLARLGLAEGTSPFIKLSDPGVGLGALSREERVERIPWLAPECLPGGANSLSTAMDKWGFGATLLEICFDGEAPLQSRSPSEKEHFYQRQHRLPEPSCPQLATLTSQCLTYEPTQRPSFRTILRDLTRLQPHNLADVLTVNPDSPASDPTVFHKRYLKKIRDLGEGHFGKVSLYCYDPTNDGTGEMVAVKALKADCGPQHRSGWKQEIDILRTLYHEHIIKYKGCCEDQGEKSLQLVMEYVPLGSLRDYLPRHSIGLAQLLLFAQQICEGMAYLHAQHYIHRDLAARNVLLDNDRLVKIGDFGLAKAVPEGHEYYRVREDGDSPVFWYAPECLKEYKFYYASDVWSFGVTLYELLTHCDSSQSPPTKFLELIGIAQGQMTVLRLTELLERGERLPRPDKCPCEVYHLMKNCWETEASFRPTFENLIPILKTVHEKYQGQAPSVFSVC

[4] = target: Ribosomal protein S6 kinase alpha-5 (Homo sapiens) (UniProt O75582); assay: Selectivity interaction (KinomeScan (DiscoverX)) EUB0001079a RPS6KA5; conditions: at 1 µM
[5] = target: T1, Serine/threonine-protein kinase RIO1 (Homo sapiens) (UniProt Q9BRS2); assay: Selectivity interaction (KINOMEscan (DiscoverX)) EUB0001868a RIOK1; conditions: at 1 µM
T1 sequence (whole entry): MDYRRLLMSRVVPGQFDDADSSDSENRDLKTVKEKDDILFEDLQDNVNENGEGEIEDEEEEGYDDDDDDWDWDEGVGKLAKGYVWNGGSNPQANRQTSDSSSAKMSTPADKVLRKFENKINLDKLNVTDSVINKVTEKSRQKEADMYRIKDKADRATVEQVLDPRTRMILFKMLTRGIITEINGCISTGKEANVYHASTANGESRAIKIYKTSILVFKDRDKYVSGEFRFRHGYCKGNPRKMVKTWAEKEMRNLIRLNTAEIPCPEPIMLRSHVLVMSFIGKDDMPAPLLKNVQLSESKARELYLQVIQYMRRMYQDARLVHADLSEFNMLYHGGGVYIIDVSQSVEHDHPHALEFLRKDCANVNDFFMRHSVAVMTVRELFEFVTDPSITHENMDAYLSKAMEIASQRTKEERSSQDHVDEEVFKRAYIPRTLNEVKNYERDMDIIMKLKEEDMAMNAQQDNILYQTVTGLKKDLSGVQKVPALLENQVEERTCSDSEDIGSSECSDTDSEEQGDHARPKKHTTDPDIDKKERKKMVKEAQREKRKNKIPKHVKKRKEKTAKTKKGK

[6] = system: Epidermal growth factor receptor (Homo sapiens), P00533 [UNDEFINED MUTATION]; conditions: at 10 µM
[7] = target: Calcium/calmodulin-dependent protein kinase kinase 1 (Homo sapiens) (UniProt Q8N5S9); assay: Selectivity interaction (LanthaScreen Eu Kinase Binding Assay) EUB0001632a CAMKK1; conditions: at 10 µM
[8] = target: Protein kinase C gamma type (Homo sapiens) (UniProt P05129); assay: Selectivity interaction (Kinase panel (Z-LYTE Assay)) EUB0001632a PRKCG; conditions: at 10 µM
[9] = target: SRSF protein kinase 3 (Homo sapiens) (UniProt Q9UPE1); assay: Selectivity interaction (Kinase panel (Z-LYTE Assay)) EUB0001632a SRPK3; conditions: at 10 µM
[10] = target: Bromodomain-containing protein 4 (Homo sapiens, UniProt O60885); assay: Selectivity interaction (Bromodomain panel (DSF asssay)) EUB0000270b BRD4
[11] = target: Casein kinase I isoform alpha (Homo sapiens, UniProt P48729); assay: Selectivity interaction (ActivX KiNativ screen (kinase selectivity in THP-1 cell lysates)) EUB0000639a CSNK1A1; type: subcellular; conditions: lysate, at 0.04 µM
Sequence of Casein kinase I isoform alpha (P48729 2-337 limits assumed): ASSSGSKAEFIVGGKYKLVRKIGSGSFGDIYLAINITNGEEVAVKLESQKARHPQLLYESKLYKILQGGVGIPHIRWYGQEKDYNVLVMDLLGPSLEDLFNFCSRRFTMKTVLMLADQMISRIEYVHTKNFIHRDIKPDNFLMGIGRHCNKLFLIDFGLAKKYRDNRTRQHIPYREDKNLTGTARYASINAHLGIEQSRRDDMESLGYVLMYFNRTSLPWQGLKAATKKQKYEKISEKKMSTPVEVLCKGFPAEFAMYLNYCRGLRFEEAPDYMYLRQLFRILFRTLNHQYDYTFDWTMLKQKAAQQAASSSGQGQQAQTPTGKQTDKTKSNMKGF

[12] = target: Substance-P receptor (Homo sapiens) (UniProt P25103); assay: Selectivity interaction (Panel of kinases, GPCRs, ion channels and transporters (enzymatic assay)) EUB0000223bCl TACR1
Sequence of Substance-P receptor (Homo sapiens) (P25103 whole entry): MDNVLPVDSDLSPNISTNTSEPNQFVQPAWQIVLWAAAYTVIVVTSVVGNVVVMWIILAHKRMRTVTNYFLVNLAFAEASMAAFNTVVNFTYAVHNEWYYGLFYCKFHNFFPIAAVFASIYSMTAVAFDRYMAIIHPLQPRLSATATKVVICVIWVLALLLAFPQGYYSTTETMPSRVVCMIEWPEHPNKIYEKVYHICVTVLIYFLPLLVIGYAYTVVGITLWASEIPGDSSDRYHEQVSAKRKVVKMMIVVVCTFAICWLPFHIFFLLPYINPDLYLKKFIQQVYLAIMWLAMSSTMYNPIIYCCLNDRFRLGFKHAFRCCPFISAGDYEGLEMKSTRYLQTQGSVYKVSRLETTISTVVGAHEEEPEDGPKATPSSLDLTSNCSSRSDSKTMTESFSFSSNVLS

[13] = target: Myosin-IIIa (Homo sapiens) (UniProt Q8NEV4); assay: Selectivity interaction (KinomeScan (DiscoverX)) EUB0001049a MYO3A; conditions: at 1 µM
[14] = target: Mitogen-activated protein kinase kinase kinase kinase 5 (Homo sapiens) (UniProt Q9Y4K4); assay: Selectivity interaction (KinomeScan (DiscoverX)) EUB0000695a MAP4K5; conditions: at 100 nM
Sequence of Mitogen-activated protein kinase kinase kinase kinase 5 (Homo sapiens) (Q9Y4K4 whole entry, looked up, the tested form may be a part): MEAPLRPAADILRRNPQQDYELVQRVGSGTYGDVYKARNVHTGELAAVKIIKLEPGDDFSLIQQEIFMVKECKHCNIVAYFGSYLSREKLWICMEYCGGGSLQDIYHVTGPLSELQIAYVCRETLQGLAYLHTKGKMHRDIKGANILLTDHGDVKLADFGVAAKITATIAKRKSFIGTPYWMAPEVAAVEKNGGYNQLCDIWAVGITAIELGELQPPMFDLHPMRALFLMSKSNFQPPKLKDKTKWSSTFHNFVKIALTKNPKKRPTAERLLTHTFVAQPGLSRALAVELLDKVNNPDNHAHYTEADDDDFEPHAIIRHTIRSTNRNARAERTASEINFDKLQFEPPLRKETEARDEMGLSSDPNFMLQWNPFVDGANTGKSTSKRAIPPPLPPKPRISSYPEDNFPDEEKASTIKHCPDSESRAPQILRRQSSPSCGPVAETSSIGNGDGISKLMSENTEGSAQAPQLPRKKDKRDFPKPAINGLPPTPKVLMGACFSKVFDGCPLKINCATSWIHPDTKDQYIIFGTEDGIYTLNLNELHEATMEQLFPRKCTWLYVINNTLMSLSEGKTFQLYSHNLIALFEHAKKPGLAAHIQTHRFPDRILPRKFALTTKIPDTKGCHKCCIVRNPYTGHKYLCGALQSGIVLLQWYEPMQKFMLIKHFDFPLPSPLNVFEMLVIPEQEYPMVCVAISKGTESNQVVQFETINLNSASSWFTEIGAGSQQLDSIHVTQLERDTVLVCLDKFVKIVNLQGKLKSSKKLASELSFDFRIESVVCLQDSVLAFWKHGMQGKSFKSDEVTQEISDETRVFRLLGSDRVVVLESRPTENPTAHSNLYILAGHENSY

[15] = target: Phosphatidylinositol 4-phosphate 3-kinase C2 domain-containing subunit beta (Homo sapiens) (UniProt O00750); assay: Selectivity interaction (KinomeScan (DiscoverX)) EUB0000695a PIK3C2B; conditions: at 100 nM
[16] = target: Serine/threonine-protein kinase 32A (Homo sapiens) (UniProt Q8WU08); assay: Selectivity interaction (KinomeScan (DiscoverX)) EUB0000695a STK32A; conditions: at 100 nM
Sequence of Serine/threonine-protein kinase 32A (Homo sapiens) (Q8WU08 whole entry): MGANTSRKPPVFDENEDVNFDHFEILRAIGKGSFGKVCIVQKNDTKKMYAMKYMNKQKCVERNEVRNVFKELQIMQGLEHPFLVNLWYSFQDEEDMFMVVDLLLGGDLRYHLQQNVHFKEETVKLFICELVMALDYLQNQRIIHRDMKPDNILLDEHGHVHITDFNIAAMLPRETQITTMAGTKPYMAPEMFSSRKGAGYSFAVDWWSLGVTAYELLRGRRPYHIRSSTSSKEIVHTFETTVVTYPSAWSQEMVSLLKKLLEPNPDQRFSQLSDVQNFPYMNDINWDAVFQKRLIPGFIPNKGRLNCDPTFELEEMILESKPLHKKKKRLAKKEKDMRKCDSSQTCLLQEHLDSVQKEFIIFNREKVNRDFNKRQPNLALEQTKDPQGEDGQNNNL

[17] = target: Insulin-like growth factor 1 receptor (Homo sapiens, UniProt P08069); assay: Selectivity interaction (Kinase panel (enzymatic assay)) EUB0000595a IGF1R
[18] = target: Serine/threonine-protein kinase tousled-like 2 (Homo sapiens) (UniProt Q86UE8); assay: Selectivity interaction (KinomeScan (DiscoverX)) EUB0000595a TLK2; conditions: at 10 µM
[19] = target: Ephrin type-A receptor 2 (Homo sapiens) (UniProt P29317); assay: Selectivity interaction (KinomeScan (DiscoverX)) EUB0000618a EPHA2; conditions: at 10 µM
[20] = target: T2, SNF-related serine/threonine-protein kinase (Homo sapiens) (UniProt Q9NRH2); assay: Selectivity interaction (KinomeScan (DiscoverX)) EUB0000618a SNRK; conditions: at 10 µM
T2 sequence (whole entry): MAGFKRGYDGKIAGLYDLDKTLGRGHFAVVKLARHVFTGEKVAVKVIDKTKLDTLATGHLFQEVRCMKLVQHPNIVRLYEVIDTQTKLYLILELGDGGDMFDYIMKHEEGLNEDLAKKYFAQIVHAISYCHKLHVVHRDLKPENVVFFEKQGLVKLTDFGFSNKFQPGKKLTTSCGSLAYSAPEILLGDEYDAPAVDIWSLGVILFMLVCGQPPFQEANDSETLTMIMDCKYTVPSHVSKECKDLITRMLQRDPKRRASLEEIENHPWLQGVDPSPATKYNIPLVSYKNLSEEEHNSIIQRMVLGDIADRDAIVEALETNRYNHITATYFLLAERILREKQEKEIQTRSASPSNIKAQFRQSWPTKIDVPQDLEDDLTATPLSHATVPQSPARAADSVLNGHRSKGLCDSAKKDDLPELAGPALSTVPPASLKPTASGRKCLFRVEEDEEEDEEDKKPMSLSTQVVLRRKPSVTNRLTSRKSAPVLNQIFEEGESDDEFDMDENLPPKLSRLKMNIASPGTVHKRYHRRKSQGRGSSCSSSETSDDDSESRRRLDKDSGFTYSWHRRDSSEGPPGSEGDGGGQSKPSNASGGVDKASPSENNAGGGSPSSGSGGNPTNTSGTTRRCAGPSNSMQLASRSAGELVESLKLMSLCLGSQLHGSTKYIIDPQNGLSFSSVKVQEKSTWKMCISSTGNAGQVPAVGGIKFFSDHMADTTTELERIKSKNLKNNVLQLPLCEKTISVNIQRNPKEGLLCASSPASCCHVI

[21] = target: 5'-AMP-activated protein kinase catalytic subunit alpha-1 (Homo sapiens, UniProt Q13131); assay: Selectivity interaction (ActivX KiNativ screen (ex vivo kinase selectivity in human PBMCs)) EUB0001619a PRKAA1; type: cell-based; conditions: PBMC, at 1 µM
Sequence of 5'-AMP-activated protein kinase catalytic subunit alpha-1 (Q13131 whole entry, looked up): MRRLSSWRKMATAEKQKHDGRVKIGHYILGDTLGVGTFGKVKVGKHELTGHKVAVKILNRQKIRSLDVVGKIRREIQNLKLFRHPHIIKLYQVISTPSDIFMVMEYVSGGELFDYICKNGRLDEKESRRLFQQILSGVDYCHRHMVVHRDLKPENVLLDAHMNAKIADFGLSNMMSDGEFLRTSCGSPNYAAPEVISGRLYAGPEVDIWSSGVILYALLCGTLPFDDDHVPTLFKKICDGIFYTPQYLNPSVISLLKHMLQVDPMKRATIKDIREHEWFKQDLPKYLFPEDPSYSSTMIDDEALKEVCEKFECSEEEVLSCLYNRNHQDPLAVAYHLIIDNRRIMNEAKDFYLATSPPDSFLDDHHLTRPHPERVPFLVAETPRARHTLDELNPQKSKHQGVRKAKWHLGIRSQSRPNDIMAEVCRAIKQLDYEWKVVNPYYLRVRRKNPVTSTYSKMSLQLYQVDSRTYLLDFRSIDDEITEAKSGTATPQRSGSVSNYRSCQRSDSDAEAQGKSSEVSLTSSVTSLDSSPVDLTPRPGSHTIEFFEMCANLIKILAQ

Sequence of Serine/threonine-protein kinase OSR1 (Homo sapiens) (O95747 2-527 limits assumed): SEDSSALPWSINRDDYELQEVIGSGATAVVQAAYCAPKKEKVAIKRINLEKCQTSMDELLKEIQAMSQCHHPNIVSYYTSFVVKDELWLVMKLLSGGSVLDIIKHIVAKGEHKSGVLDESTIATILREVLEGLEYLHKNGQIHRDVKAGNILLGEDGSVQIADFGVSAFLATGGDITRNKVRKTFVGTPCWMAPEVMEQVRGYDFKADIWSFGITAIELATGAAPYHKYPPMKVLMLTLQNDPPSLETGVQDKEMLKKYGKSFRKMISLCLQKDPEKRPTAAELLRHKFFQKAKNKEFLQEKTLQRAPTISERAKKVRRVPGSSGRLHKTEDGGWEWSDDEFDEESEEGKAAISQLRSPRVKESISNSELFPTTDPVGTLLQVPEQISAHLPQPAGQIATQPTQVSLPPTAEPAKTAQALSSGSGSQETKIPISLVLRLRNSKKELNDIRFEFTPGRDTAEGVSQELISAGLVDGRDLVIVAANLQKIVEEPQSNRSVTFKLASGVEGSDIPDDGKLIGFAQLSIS

CCC(=O)N1CCN(c2ccc(-n3c(=O)ccc4cnc5ccc(-c6cnc7ccccc7c6)cc5c43)cc2C(F)(F)F)CC1
% of control [1]: 100%
% of control [2]: 100%

C=CC(=O)Nc1cccc(C(=O)Nc2ccc(Nc3cc(-c4[nH]c(SC)nc4C)ccn3)cc2)c1
% of control ([3]; at 1 µM): 77%
% of control ([3]; at 5 µM): 46%

Nc1cnc(N2CCc3cc(S(=O)(=O)Nc4c(F)cc(Cl)cc4F)cc(N4CCCC4=O)c32)nc1 [TP-020n]
% of control [4]: 100%

Cc1cc(-c2ccnc(Nc3cnn(C)c3)n2)ccc1CNC(=O)N1CC(OC(C)C)C1
% of control [5]: 17%

Cc1cc([C@@H](C)Nc2ccccc2C(=O)O)c2nc(N3CCOCC3)cc(=O)n2c1 [AZD-6482]
% of control [6]: 100%

Cn1cc(-n2cnc3c(NCc4nc5cc(Cl)c(Cl)cc5[nH]4)nc(N4CCOCC4)nc32)cn1
% of inhibition [7]: -49.1%
% of control [8]: 11.7%
% of control [9]: -1.05%

Cc1cc(CN)cc(C)c1-c1ncn(C)c1-c1cncn1C
dTM [10]: -0.92 K

CC[C@@H]1[C@H](F)C(=O)N[C@@H]1COc1nccc2cc(C(N)=O)c(OC)cc12 [ZIMLOVISERTIB]
% of inhibition [11]: -2.5%

COc1cc(C(=O)N2CC[C@@H](O)[C@@H](N)C2)cc2nc(-c3cc4ccccc4n3CC3CC3)n(C)c12
pXC50 [12]: < 4.4 M

COc1cc(Nc2nc(C)cc(-c3cnn4nc(OC)ccc34)n2)cc(C(F)(F)F)c1
% of control [13]: 87%

Cc1cc(F)c(C(=O)Nc2cccc(-c3nncn3C(C)C)n2)cc1-n1cnc(C2CC2)c1
% of control [14]: 100%
% of control [15]: 100%
% of control [16]: 100%

COCC(=O)NC/C=C/c1ccc2ncnc(Nc3ccc(Oc4ccc(C)nc4)c(C)c3)c2c1 [CP-724714]
IC50 [17]: > 10 µM
% of control [18]: 100%

O[C@H]1CC[C@H](Nc2ncc3nc(Nc4c(F)cc(F)cc4F)n([C@H]4CCOC4)c3n2)CC1
% of control [19]: 99%
% of control [20]: 100%

N#Cc1cccc(-c2c[nH]c3ncnc(N4CCOCC4)c23)c1
% of inhibition [21]: 27%
